Test results: patent publication US20110182982A1, “LIPOSOME TREATMENT OF VIRAL INFECTIONS” (University of Oxford, priority 2006, published 2011)
Read-outs that look alike come from different tables or passages of the source.

Legend:
[1] = pH sensitivity of DCPP liposomes (calcein leakage); format: physicochemical; details: 1 mM encapsulated, pH 5.0-7.4, vs calcein only liposomes
Method: DCPP liposomes encapsulating 1-mM DNJ, NB-DNJ, or NN-DNJ in 80-mM calcein buffer were compared with empty (calcein only) liposomes to determine the effects of the alkyl chain of NB-DNJ and NN-DNJ on the pH-sensitivity. 10 μl of calcein-loaded DCPP liposomes (final phospholipid concentration, 5 μM) was added to 2 ml of MES-buffered saline at various pH values ranging from 5.0-7.4, and left to incubate with shaking 15 min at 37° C. Following incubation, calcein fluorescence was measured before and after the addition of Triton to a final concentration of 0.1%. Fluorescence intensities obtained at acidic pH values were corrected for the slight effect of pH on calcein fluorescence. The percentage of calcein release at each pH was calculated using the formula: % leakage=((in−I0)/(I100−I0))×100, where I0 is the fluorescence at neutral pH, In is the corrected intensity at acidic pH before the addition of Triton, and I100 is the total dequenched calcein at neutral pH.

cp BVDV = experiment: Yield reduction (plaque) assay; format: cell-based, bovine viral diarrhea virus; details: for IC50: Bovine viral diarrhea virus isolates and strains, read-out: IC50, secretion of infectious BVDV
Method: The antiviral effect of liposome-included NB-DNJ was also tested against the cp BVDV, using the yield reduction assay, a method which takes advantage of the cp strain being able to form plaques on monolayers of infected cells.
FIG. 7 represents the effect of free vs. DC liposome-encapsulated NB-DNJ, on secretion of infectious cp BVDV. MDBK cells infected with cp BVDV were treated for 3 days with either free or DC liposome-NB-DNJ, so that the final NB-DNJ concentrations ranged between 0 and 500 μM and the total lipid concentration was 100 μM. The supernatants were then removed and used to infect fresh MDBK monolayers in six-well plates. After 3 days the plaques were counted under the microscope (plaque assay) and the results were expressed as a percentage of the number of plaques resulting from infection with no drug supernatant (=100%) (x axis). The y axis indicates the free or DC liposome-included NB-DNJ concentrations used in the plaque assay. The IC50 is indicated at the bottom of the graph.

ER glucosidases I and II = experiment: Free oligosaccharide (FOS) analysis as marker of glucosidase inhibition; format: cell-based, Chinese hamster
Excerpt: Free oligosaccharides (FOS) produced in the presence of free or DCPP liposomes encapsulating NB-DNJ are characterized and used as a cellular marker for glucosidase inhibition to measure the enhancement of drug activity due to intracellular delivery. […] In this experiment, the distribution of glucosylated FOS is used as a measure of glucosidase inhibition by NB-DNJ, where Glc1Mann-FOS and Glc2Mann-FOS species are a result of glucosidase II inhibition, and Glc3Mann-FOS a result of glucosidase I inhibition.
CHO cells were incubated in the presence of free NB-DNJ at the antiviral concentration of 0.5 mM, or with 100 μM of DCPP liposomes encapsulating NB-DNJ at final concentrations ranging 0-75 nM. Cells were left to incubate for 5 days and isolation of FOS was performed using cell homogenates standardized to 500 μg of total protein as described by Mellor et al (2004). Biochem J. 2004 Aug. 1; 381 (Pt 3): 861-866. Detection of FOS was performed by normal-phase HPLC following labeling of oligosaccharides by 2-aminobenzamide. The compositions of FOS were further characterized and determined by digestions with glycosidases including endoglycosidase H, jack bean α-mannosidase, and α-glucosidases I and II. The percentage of non-glucosylated and glucosylated oligomannose FOS (represented by Mann-FOS, Glc1Mann-FOS, Glc2Mann-FOS, and Glc3Mann-FOS) was calculated for each sample, and results are represented in Table 2. Results represent the mean±S.D. of four separate experiments.

CCCCN1C[C@H](O)[C@@H](O)[C@H](O)[C@H]1CO [NB-DNJ, N-butyl-1,5-dideoxy-1,5-imino-D-glucitol]
pH sensitivity / stability of DCPP liposomes [1]: significant decrease in pH sensitivity
better inhibition, DC liposomes vs free (cp BVDV): 8 fold
IC50 (cp BVDV; free drug): 175 µM
IC50 (cp BVDV; included in DC liposomes, total lipid 100 μM): 20 µM
Distribution of total FOS Glc0Mann (ER glucosidases I and II; 0.75 pM in liposomes): 70.7 ± 5.4%
Distribution of total FOS Glc1Mann (ER glucosidases I and II; 0.75 pM in liposomes): 18.7 ± 3.7%
Distribution of total FOS Glc2Mann (ER glucosidases I and II; 0.75 pM in liposomes): 7.7 ± 1.1%
Distribution of total FOS Glc3Mann (ER glucosidases I and II; 0.75 pM in liposomes): 2.9 ± 0.9%
Distribution of total FOS Glc0Mann (ER glucosidases I and II; 7.5 pM in liposomes): 70.4 ± 4.2%
Distribution of total FOS Glc1Mann (ER glucosidases I and II; 7.5 pM in liposomes): 17.7 ± 1.3%
Distribution of total FOS Glc2Mann (ER glucosidases I and II; 7.5 pM in liposomes): 8.3 ± 2.1%
Distribution of total FOS Glc3Mann (ER glucosidases I and II; 7.5 pM in liposomes): 3.6 ± 1.3%
Distribution of total FOS Glc0Mann (ER glucosidases I and II; 75 pM in liposomes): 51.7 ± 4.7%
Distribution of total FOS Glc1Mann (ER glucosidases I and II; 75 pM in liposomes): 38.6 ± 4.1%
Distribution of total FOS Glc2Mann (ER glucosidases I and II; 75 pM in liposomes): 5.3 ± 1.8%
Distribution of total FOS Glc3Mann (ER glucosidases I and II; 75 pM in liposomes): 4.4 ± 2.8%
Distribution of total FOS Glc0Mann (ER glucosidases I and II; 0.75 nM in liposomes): 20.4 ± 2.7%
Distribution of total FOS Glc1Mann (ER glucosidases I and II; 0.75 nM in liposomes): 66.9 ± 5.1%
Distribution of total FOS Glc2Mann (ER glucosidases I and II; 0.75 nM in liposomes): 7.4 ± 3.3%
Distribution of total FOS Glc3Mann (ER glucosidases I and II; 0.75 nM in liposomes): 5.3 ± 2.9%
Distribution of total FOS Glc0Mann (ER glucosidases I and II; 7.5 nM in liposomes): 12.7 ± 2.6%
Distribution of total FOS Glc1Mann (ER glucosidases I and II; 7.5 nM in liposomes): 50.0 ± 4.8%
Distribution of total FOS Glc2Mann (ER glucosidases I and II; 7.5 nM in liposomes): 28.6 ± 2.7%
Distribution of total FOS Glc3Mann (ER glucosidases I and II; 7.5 nM in liposomes): 8.7 ± 1.7%
Distribution of total FOS Glc0Mann (ER glucosidases I and II; 75 nM in liposomes): 13.2 ± 4.1%
Distribution of total FOS Glc1Mann (ER glucosidases I and II; 75 nM in liposomes): 7.9 ± 2.8%
Distribution of total FOS Glc2Mann (ER glucosidases I and II; 75 nM in liposomes): 26.6 ± 4.5%
Distribution of total FOS Glc3Mann (ER glucosidases I and II; 75 nM in liposomes): 52.3 ± 6.2%
Distribution of total FOS Glc0Mann (ER glucosidases I and II; 0.5 mM free): 11.9 ± 1.9%
Distribution of total FOS Glc1Mann (ER glucosidases I and II; 0.5 mM free): 9.5 ± 0.9%
Distribution of total FOS Glc2Mann (ER glucosidases I and II; 0.5 mM free): 31.7 ± 4.5%
Distribution of total FOS Glc3Mann (ER glucosidases I and II; 0.5 mM free): 46.9 ± 4.8%
